Experimental data reported in ChEMBL document CHEMBL5257126, “Moderately lipophilic 2-(Het)aryl-6-dithioacetals, 2-phenyl-1,4-benzodioxane-6-dithioacetals and 2-phenylbenzofuran-5-dithioacetals: Synthesis and primary evaluation as potential antidiabetic AMPK-activators” (Bioorg Med Chem, 2023).
Blank lines part the entries; values can stand above or below the molecule they belong to. The source made the active and inactive calls. The rule behind the calls is not given here.

Assays:
[1] = Cmax in C57BL/6 mouse at 25 mg/kg, po; format: ADME, organism-based; parameters: dose 25 mg/kg, route po; settings: in vivo
[2] = biological target: T1, Serine/threonine-protein kinase STK11 (Rattus norvegicus) (UniProt D4AE59); experiment: Activation of LKB1 in rat L6 cells assessed as fold increase in phosphorylation at Ser428 at 0.1 uM incubated for 24 hrs by Western blot analysis (reference value: 4.6); format: cell-based; settings: filed as activator
T1 sequence (whole entry): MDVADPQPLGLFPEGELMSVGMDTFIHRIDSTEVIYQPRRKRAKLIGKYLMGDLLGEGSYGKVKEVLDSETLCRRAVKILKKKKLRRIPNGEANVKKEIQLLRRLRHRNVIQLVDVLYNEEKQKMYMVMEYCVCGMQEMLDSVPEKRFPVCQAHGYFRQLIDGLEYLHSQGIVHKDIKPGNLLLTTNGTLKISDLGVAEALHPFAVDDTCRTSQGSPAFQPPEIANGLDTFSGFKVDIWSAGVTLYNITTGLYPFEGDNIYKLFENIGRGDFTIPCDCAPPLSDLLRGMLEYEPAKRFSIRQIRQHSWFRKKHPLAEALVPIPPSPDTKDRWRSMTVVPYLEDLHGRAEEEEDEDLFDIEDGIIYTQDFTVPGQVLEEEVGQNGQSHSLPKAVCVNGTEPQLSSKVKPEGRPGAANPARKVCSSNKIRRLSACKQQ

INS-1E [3] = experiment: Anti-hyperglycemic activity in rat INS-1E cells assessed as total intracellular insulin secretion at 2 uM after 24 hrs; format: functional, cell-based
[4] = biological target: T2, AMP-activated protein kinase, AMPK (Rattus norvegicus) (UniProt P54645+Q09137+P80386+P80385+Q9QZH4+Q6V7V4+D4A7E4); experiment: Activation of AMPK phosphorylation at Thr172 residue in rat L6 cells assessed as fold increase at 2.5 uM incubated for 24 hrs by Western blot analysis (reference value: 0.6); format: cell-based; settings: filed as activator
[5] = Tmax in C57BL/6 mouse at 25 mg/kg, po; format: ADME, organism-based; settings: in vivo
L6 [6] = experiment: Induction of glucose uptake in rat L6 cells assessed as fold increase by measuring 2-NBDG uptake at 25 uM preincubated in high glucose medium for 48 hrs followed by compound addition and measured after 24 hrs; format: functional
[7] = biological target: T1, Serine/threonine-protein kinase STK11 (Rattus norvegicus); experiment: Activation of LKB1 in rat L6 cells assessed as fold increase in phosphorylation at Ser428 at 2.5 uM incubated for 24 hrs by Western blot analysis (reference value: 4.6); format: cell-based; settings: filed as activator
L6 [8] = experiment: Inhibition of AKT phosphorylation at Ser473 in rat L6 cells assessed as fold reduction at 5 uM incubated for 24 hrs by Western blot analysis (reference value: 1.1); format: cell-based
L6 [9] = experiment: Inhibition of AKT phosphorylation at Ser473 in rat L6 cells assessed as fold reduction at 2.5 uM incubated for 24 hrs by Western blot analysis (reference value: 1.1); format: cell-based
L6 [10] = experiment: Inhibition of AKT phosphorylation at Ser473 in rat L6 cells assessed as fold reduction at 0.25 uM incubated for 24 hrs by Western blot analysis (reference value: 1.1); format: cell-based
[11] = biological target: T2, AMP-activated protein kinase, AMPK (Rattus norvegicus); experiment: Activation of AMPK phosphorylation at Thr172 residue in rat L6 cells assessed as fold increase at 0.5 uM incubated for 24 hrs by Western blot analysis (reference value: 0.6); format: cell-based; settings: filed as activator
[12] = biological target: T1, Serine/threonine-protein kinase STK11 (Rattus norvegicus); experiment: Activation of LKB1 in rat L6 cells assessed as fold increase in phosphorylation at Ser428 at 5 uM incubated for 24 hrs by Western blot analysis (reference value: 4.6); format: cell-based; settings: filed as activator
[13] = Half life in C57BL/6 mouse blood; format: ADME, tissue-based
[14] = biological target: T1, Serine/threonine-protein kinase STK11 (Rattus norvegicus); experiment: Activation of LKB1 in rat L6 cells assessed as fold increase in phosphorylation at Ser428 at 0.25 uM incubated for 24 hrs by Western blot analysis (reference value: 4.6); format: cell-based; settings: filed as activator
[15] = biological target: T2, AMP-activated protein kinase, AMPK (Rattus norvegicus); experiment: Activation of AMPK phosphorylation at Thr172 residue in rat L6 cells assessed as fold increase at 10 uM incubated for 24 hrs by Western blot analysis (reference value: 0.6); format: cell-based; settings: filed as activator
INS-1E [16] = experiment: Anti-hyperglycemic activity in rat INS-1E cells assessed as basal insulin secretion after 24 hrs; format: functional, cell-based
[17] = biological target: T2, AMP-activated protein kinase, AMPK (Rattus norvegicus); experiment: Activation of AMPK phosphorylation at Thr172 residue in rat L6 cells assessed as fold increase at 5 uM incubated for 24 hrs by Western blot analysis (reference value: 0.6); format: cell-based; settings: filed as activator
L6 [18] = experiment: Inhibition of AKT phosphorylation at Ser473 in rat L6 cells assessed as fold reduction at 10 uM incubated for 24 hrs by Western blot analysis (reference value: 1.1); format: cell-based
[19] = biological target: T2, AMP-activated protein kinase, AMPK (Rattus norvegicus); experiment: Activation of AMPK phosphorylation in rat L6 cells incubated for 24 hrs by Western blot analysis; format: cell-based; settings: filed as activator, dose 0.6-9.31 µM
INS-1E [20] = experiment: Anti-hyperglycemic activity in rat INS-1E cells assessed as insulin secretion […] after 24 hrs; format: functional, cell-based
[21] = Half life in C57BL/6 mouse at 5 mg/kg, iv; format: ADME, organism-based; settings: in vivo
L6 [22] = experiment: Inhibition of AKT phosphorylation at Ser473 in rat L6 cells assessed as fold reduction at 0.5 uM incubated for 24 hrs by Western blot analysis (reference value: 1.1); format: cell-based
[23] = biological target: T2, AMP-activated protein kinase, AMPK (Rattus norvegicus); experiment: Activation of AMPK phosphorylation in rat INS-1E beta-cells at 2 uM incubated for 24 hrs; format: cell-based; settings: filed as activator
[24] = Clearance in C57BL/6 mouse at 5 mg/kg, iv; format: ADME, organism-based; settings: in vivo
L6 [25] = experiment: Induction of glucose uptake in rat L6 cells assessed as fold increase by measuring 2-NBDG uptake at 2.5 uM preincubated in high glucose medium for 48 hrs followed by compound addition and measured after 24 hrs; format: functional
[26] = biological target: T2, AMP-activated protein kinase, AMPK (Rattus norvegicus); experiment: Activation of AMPK phosphorylation at Thr172 residue in rat L6 cells assessed as fold increase at 0.1 uM incubated for 24 hrs by Western blot analysis (reference value: 0.6); format: cell-based; settings: filed as activator
INS-1E [27] = experiment: Anti-hyperglycemic activity in rat INS-1E cells assessed as glucose stimulated insulin secretion at 1 to 2 uM after 24 hrs; format: functional, cell-based; settings: dose 1-2 µM
[28] = Oral bioavailability in C57BL/6 mouse at 25 mg/kg; format: ADME, organism-based; settings: in vivo
L6 [29] = experiment: Induction of glucose uptake in rat L6 cells assessed as fold increase by measuring 2-NBDG uptake at 0.25 uM preincubated in high glucose medium for 48 hrs followed by compound addition and measured after 24 hrs; format: functional
[30] = Half life in C57BL/6 mouse at 25 mg/kg, po; format: ADME, organism-based; settings: in vivo
[31] = biological target: T2, AMP-activated protein kinase, AMPK (Rattus norvegicus); experiment: Activation of AMPK phosphorylation at Thr172 residue in rat L6 cells assessed as fold increase at 0.25 uM incubated for 24 hrs by Western blot analysis (reference value: 0.6); format: cell-based; settings: filed as activator
[32] = biological target: T2, AMP-activated protein kinase, AMPK (Rattus norvegicus); experiment: Activation of AMPK phosphorylation in rat INS-1E cells incubated for 24 hrs; format: cell-based; settings: filed as activator, dose 0.5-2 µM
L6 [33] = experiment: Inhibition of AKT phosphorylation at Ser473 in rat L6 cells assessed as fold reduction at 1 uM incubated for 24 hrs by Western blot analysis (reference value: 1.1); format: cell-based
[34] = Volume of distribution at steady state in C57BL/6 mouse at 5 mg/kg, iv; format: ADME, organism-based; settings: in vivo, read-out: Vdss
[35] = biological target: T1, Serine/threonine-protein kinase STK11 (Rattus norvegicus); experiment: Activation of LKB1 in rat L6 cells assessed as fold increase in phosphorylation at Ser428 at 1 uM incubated for 24 hrs by Western blot analysis (reference value: 4.6); format: cell-based; settings: filed as activator
L6 [36] = experiment: Inhibition of AKT phosphorylation at Ser473 in rat L6 cells assessed as fold reduction at 0.1 uM incubated for 24 hrs by Western blot analysis (reference value: 1.1); format: cell-based
[37] = biological target: T1, Serine/threonine-protein kinase STK11 (Rattus norvegicus); experiment: Activation of LKB1 in rat L6 cells assessed as fold increase in phosphorylation at Ser428 at 0.5 uM incubated for 24 hrs by Western blot analysis (reference value: 4.6); format: cell-based; settings: filed as activator
[38] = biological target: T1, Serine/threonine-protein kinase STK11 (Rattus norvegicus); experiment: Activation of LKB1 in rat L6 cells assessed as fold increase in phosphorylation at Ser428 at 10 uM incubated for 24 hrs by Western blot analysis (reference value: 4.6); format: cell-based; settings: filed as activator
[39] = biological target: T2, AMP-activated protein kinase, AMPK (Rattus norvegicus); experiment: Activation of AMPK phosphorylation at Thr172 residue in rat L6 cells assessed as fold increase at 1 uM incubated for 24 hrs by Western blot analysis (reference value: 0.6); format: cell-based; settings: filed as activator
[40] = biological target: T1, Serine/threonine-protein kinase STK11 (Rattus norvegicus); experiment: Activation of LKB1 in rat L6 cells assessed as fold increase in phosphorylation at Ser428 at 25 uM incubated for 24 hrs by Western blot analysis; format: cell-based; settings: filed as activator
[41] = biological target: T1, Serine/threonine-protein kinase STK11 (Rattus norvegicus); experiment: Activation of LKB1 in rat L6 cells assessed as fold increase in phosphorylation at Ser428 at 10 uM incubated for 24 hrs by Western blot analysis; format: cell-based

Cmax [1]: 7630 ng/mL
fold change (FC) [2]: 5.56
fold change (FC) [4]: 5.11
Tmax [5]: 30 min
fold change (FC) [7]: 4.1
fold change (FC) [11]: 1.33
fold change (FC) [12]: 4.78
half-life [13]: 66.6 min
fold change (FC) [14]: 5.33
fold change (FC) [15]: 9
fold change (FC) [17]: 6.32
Activity [19]: Dose-Dependent Effect
half-life [21]: 49.6 min
Activity [23]: Active
clearance [24]: 31.2 mL/min/kg
fold change (FC) [26]: 0.5
bioavailability [28]: 99%
half-life [30]: 66.6 min
fold change (FC) [31]: 2.33
Activity [32]: Dose-Dependent Effect
Vd [34]: 1.23 L/kg
fold change (FC) [35]: 5.71
fold change (FC) [37]: 5.25
fold change (FC) [38]: 5
fold change (FC) [39]: 1.58
SMILES: c1cc(C2CCc3cc(C4SCCCS4)ccc3O2)ccn1 (stereo not drawn)
Activity (INS-1E [3]): inactive
fold change (FC) (L6 [6]): 1.1
fold change (FC) (L6 [8]): 0.25
fold change (FC) (L6 [9]): 0.18
fold change (FC) (L6 [10]): 0.22
Activity (INS-1E [16]): inactive
fold change (FC) (L6 [18]): 0.18
Activity (INS-1E [20]): Dose-Dependent Effect
fold change (FC) (L6 [22]): 0.12
fold change (FC) (L6 [25]): 1.2
Activity (INS-1E [27]): Active
fold change (FC) (L6 [29]): 1.8
fold change (FC) (L6 [33]): 0.3
fold change (FC) (L6 [36]): 1.1

SMILES: OCCSC(SCCO)c1ccc2c(c1)CCC(c1ccccc1)O2 (stereo not drawn)
fold change (FC) (L6 [6]): 1.5
fold change (FC) (L6 [25]): 1
fold change (FC) (L6 [29]): 1

SMILES: OCCSC(SCCO)c1ccc2c(c1)CCC(c1cccnc1)O2 (stereo not drawn)
fold change (FC) (L6 [6]): 1.9
fold change (FC) (L6 [25]): 1.7
fold change (FC) (L6 [29]): 1.4

SMILES: O=C(O)CCSC(SCCC(=O)O)c1ccc2c(c1)CCC(c1ccccc1)O2 (stereo not drawn)
fold change (FC) (L6 [6]): 1.2
fold change (FC) (L6 [25]): 1.1
fold change (FC) (L6 [29]): 0.9

SMILES: c1coc(C2CCc3cc(C4SCCCS4)ccc3O2)c1 (stereo not drawn)
fold change (FC) (L6 [6]): 1.2
fold change (FC) (L6 [25]): 1
fold change (FC) (L6 [29]): 1

Activity [40]: 80%
Activity [41]: 30%
SMILES: c1ccc(C2CCc3cc(C4SCCCCS4)ccc3O2)cc1 (stereo not drawn)

SMILES: CC(C)(C)OC(=O)NCCSC(SCCNC(=O)OC(C)(C)C)c1ccc2c(c1)CCC(c1ccccc1)O2 (stereo not drawn)
fold change (FC) (L6 [6]): 1
fold change (FC) (L6 [25]): 1
fold change (FC) (L6 [29]): 1

SMILES: O=C(NCCSC(SCCNC(=O)OCc1ccccc1)c1ccc2c(c1)CCC(c1ccccc1)O2)OCc1ccccc1 (stereo not drawn)
fold change (FC) (L6 [6]): 1.1
fold change (FC) (L6 [25]): 1.1
fold change (FC) (L6 [29]): 0.9

SMILES: OCCSC(SCCO)c1ccc2c(c1)OCC(c1ccccc1)O2 (stereo not drawn)
fold change (FC) (L6 [6]): 1.7
fold change (FC) (L6 [25]): 1.2
fold change (FC) (L6 [29]): 1.1

SMILES: c1ccc(-c2cc3cc(C4SCCCCS4)ccc3o2)cc1
fold change (FC) (L6 [6]): 1.1
fold change (FC) (L6 [25]): 1
fold change (FC) (L6 [29]): 1

SMILES: c1cncc(C2CCc3cc(C4SCCCS4)ccc3O2)c1 (stereo not drawn)
fold change (FC) (L6 [6]): 1.3
fold change (FC) (L6 [25]): 1
fold change (FC) (L6 [29]): 1
